Assay results as given in publication PMC6382392 (Journal of medicinal chemistry, 2018).

How the values were obtained:
[1] = system: PC43–10 CHO cells expressing human RFC; assay: Growth inhibition; settings: CHO subline expressing human RFC; drug up to 1000 nM, up to 96 h; mean (SE)
[2] = system: NCI-IGROV1 EOC xenografts; assay: In vivo efficacy trial, subcutaneous NCI-IGROV1 EOC xenografts in SCID mice; settings: for Antitumor activity toward NCI-IGROV1 tumors in vivo (in words): SCID mice, folate-deficient diet
FRβ = FRβ (Homo sapiens, UniProt P14207); assay: Competitive [3H]folic acid binding to FRβ in D4 CHO cells; settings: 50 nM [3H]folic acid, 15 min, 0 °C
Sequence of FRβ (P14207 17-255): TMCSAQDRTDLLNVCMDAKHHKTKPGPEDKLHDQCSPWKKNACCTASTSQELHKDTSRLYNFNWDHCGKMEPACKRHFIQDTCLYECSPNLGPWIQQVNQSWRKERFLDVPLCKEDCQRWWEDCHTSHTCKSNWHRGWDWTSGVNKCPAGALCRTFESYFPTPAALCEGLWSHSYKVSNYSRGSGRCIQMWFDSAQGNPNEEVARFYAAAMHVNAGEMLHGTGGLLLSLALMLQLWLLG

FRα = FRα (Homo sapiens, UniProt P15328); assay: Competitive [3H]folic acid binding to FRα in RT16 CHO cells; settings: 50 nM [3H]folic acid, 15 min, 0 °C
Sequence of FRα (P15328 25-257): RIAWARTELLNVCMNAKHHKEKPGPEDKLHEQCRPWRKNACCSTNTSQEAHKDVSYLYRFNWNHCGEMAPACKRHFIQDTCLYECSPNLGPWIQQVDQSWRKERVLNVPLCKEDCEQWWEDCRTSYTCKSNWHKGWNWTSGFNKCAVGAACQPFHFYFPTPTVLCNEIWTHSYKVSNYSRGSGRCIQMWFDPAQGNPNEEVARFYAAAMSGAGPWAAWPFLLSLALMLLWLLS

[3] = system: D4 CHO cells expressing human FRβ; settings: for IC50: Homo sapiens, CHO, read-out: IC50 growth inhibition, FRβ, D4; for IC50 growth inhibition, FRβ, D4: without folic acid, mean (SE)
[4] = system: KB human tumor cells (RFC/FRα/PCFT); assay: Growth inhibition of KB human tumor cells, with and without 200 nM folic acid; settings: without folic acid; mean (SE)
[5] = system: RT16 CHO cells expressing human FRα
PCFT = biological target: T1, PCFT (Homo sapiens, UniProt Q96NT5); assay: Competitive inhibition of [3H]MTX uptake by PCFT in R2/PCFT4 cells; type: cell-based
T1 sequence (Q96NT5 1-459): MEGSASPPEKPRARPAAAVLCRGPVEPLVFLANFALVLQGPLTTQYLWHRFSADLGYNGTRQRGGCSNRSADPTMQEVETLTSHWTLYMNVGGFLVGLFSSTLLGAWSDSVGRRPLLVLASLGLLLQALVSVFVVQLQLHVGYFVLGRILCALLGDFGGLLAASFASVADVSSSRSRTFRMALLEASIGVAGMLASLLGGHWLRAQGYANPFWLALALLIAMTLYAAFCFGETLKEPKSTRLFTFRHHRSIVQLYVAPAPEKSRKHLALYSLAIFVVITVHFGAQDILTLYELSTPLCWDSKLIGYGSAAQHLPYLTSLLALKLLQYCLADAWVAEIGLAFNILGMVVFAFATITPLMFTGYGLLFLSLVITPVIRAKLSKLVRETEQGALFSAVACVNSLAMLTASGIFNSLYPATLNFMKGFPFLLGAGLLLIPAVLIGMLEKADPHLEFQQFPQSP

Nc1nc2[nH]c(CCCCc3ccc(C(=O)N[C@@H](CCC(=O)O)C(=O)O)cc3)cc2c(=O)[nH]1 [Compound 1, reference compound]
IC50 growth inhibition, RFC, PC43–10 [1]: no activity

Nc1nc2[nH]c(CCCCc3ccc(C(=O)N[C@@H](CCC(=O)O)C(=O)O)nc3)cc2c(=O)[nH]1 [Compound 6, (5-(4-(2-Amino-4-oxo-4,7-dihydro-3H-pyrrolo[2,3-d]pyrimidin-6-yl)butyl)picolinoyl)-L-glutamic Acid]
Antitumor activity toward NCI-IGROV1 tumors in vivo (in words) [2]: excellent activity | Antitumor activity, standard (high folate) diet ([2]; mice on standard folate-replete diet): abolished | IC50 growth inhibition, RFC, PC43–10 [1]: no activity

Nc1nc2[nH]c(CCCCc3cccc(C(=O)N[C@@H](CCC(=O)O)C(=O)O)n3)cc2c(=O)[nH]1 [Compound 7, (6-(4-(2-Amino-4-oxo-4,7-dihydro-3H-pyrrolo[2,3-d]pyrimidin-6-yl)butyl)picolinoyl)-L-glutamic Acid]
Relative binding affinity to FRβ (vs folic acid) (FRβ): sharply reduced | Relative binding affinity to FRα (vs folic acid) (FRα): sharply reduced | IC50 [3]: > 1000 nM | IC50 growth inhibition, FRβ, D4 [3]: inactive

Nc1nc2[nH]c(CCC#Cc3ccc(C(=O)N[C@@H](CCC(=O)O)C(=O)O)nc3)cc2c(=O)[nH]1 [Compound 9, (5-(4-(2-Amino-4-oxo-4,7-dihydro-3H-pyrrolo[2,3-d]pyrimidin-6-yl)but-1-yn-1-yl)picolinoyl)-L-glutamic Acid]
IC50 growth inhibition, RFC/FRα/PCFT, KB [4]: inactive | Fold less active than 6, FRα-expressing CHO cells [5]: ~ 4 fold

Nc1nc2[nH]c(CCC#Cc3cccc(C(=O)N[C@@H](CCC(=O)O)C(=O)O)n3)cc2c(=O)[nH]1 [Compound 10, (6-(4-(2-Amino-4-oxo-4,7-dihydro-3H-pyrrolo[2,3-d]pyrimidin-6-yl)but-1-yn-1-yl)picolinoyl)-L-glutamic Acid]
IC50 [3]: > 1000 nM | IC50 growth inhibition, FRβ, D4 [3]: inactive | IC50 ([5]; Homo sapiens, RT16, read-out: IC50 growth inhibition, FRα, RT16): > 1000 nM | IC50 growth inhibition, FRα, RT16 ([5]; without folic acid, mean (SE)): no activity

Nc1nc2[nH]cc(CCc3ccc(C(=O)N[C@@H](CCC(=O)O)C(=O)O)cc3)c2c(=O)[nH]1 [PMX, N-{4-[2-(2-amino-3,4-dihydro-4-oxo-7H-pyrrolo-[2,3-d]pyrimidin-5-yl)ethyl]benzoyl}-L-glutamic acid, reference compound]
inhibition at 10 µM (PCFT; R2/PCFT4, pH 5.5, read-out: Inhibition of [3H]MTX transport by PCFT): ≥ 90% | Antitumor activity toward NCI-IGROV1 tumors in vivo (in words) [2]: inactive

CN(Cc1cnc2nc(N)nc(N)c2n1)c1ccc(C(=O)N[C@@H](CCCNC(=O)c2ccccc2C(=O)O)C(=O)O)cc1 [PT523, Nα-(4-amino-4-deoxypteroyl)-Nδ-hemiphthaloyl-L-ornithine]
Effect on [3H]MTX uptake by PCFT (PCFT; pH 5.5 and pH 6.8, 1 or 10 μM): no effect
